Values joined by “and” are separate entries in the source; they are usually repeats but may differ in a detail not shown here. Equal entries are not always repeated. Where two headings read alike, the source gives them in different places.
What was measured:
Assay type in all cases: cell-based, Plasmodium falciparum
PfCRT variant E207Y = assay: CQ uptake assay, oocytes expressing E207Y
Experimental: (§1) Site-directed mutagenesis of PfCRT^Dd2 was performed as described using the megaprimer method with overlap extension[21],[54]. The primer pairs used are listed in Supplementary Table 6. Please note that a codon-optimized and oocyte-adapted version of PfCRT^Dd2 was used[22] (Supplementary Fig. 16). The resulting DNA fragment was cloned into the SP64T expression vector and verified by sequencing.
(§2) Oocytes were obtained as described previously. Briefly, adult (>2 years old) female X. laevis frogs (NASCO) were anesthetized in a cooled solution of ethyl 3-amino benzoate methanesulfonate (0.1%, w/v), followed by a surgical removal of parts of the ovary. The ovary lobes were carefully dissected and small pieces of oocytes were incubated in Ca^2+-free ND96 buffer (96 mM NaCl, 2 mM KCl, 1 mM MgCl2 buffered with 5 mM HEPES/NaOH, pH 7.5) supplemented with collagenase D (0.1%, w/v; Roche), BSA (0.5%, w/v), and 9 mm Na2HPO4 at 18 °C for 14-16 h while gentle shaking. After incubation, the oocytes were carefully washed several times with ND96 buffer (96 mM NaCl, 2 mM KCl, 1.8 mM CaCl2, 1 mM MgCl2 buffered with 5 mM HEPES/NaOH, pH 7.5) supplemented with 100 mg l^−1 gentamycin). Defolliculated and healthy-looking stage V-VI oocytes were manually selected for RNA microinjection. The RNA was generated as following: The codon-optimized sequences of PfCRT variants were cloned into the pSP64T expression vector. After vector linearization using the restriction endonucleases BamHI or SalI (New England Biolabs), transcription was performed using the in vitro SP6 mMessage mMachine Kit (Ambion)[34]. The obtained RNA was kept at −80 °C and diluted with nuclease-free water to a concentration of 0.6 μg μl^−1. Precision-bore glass capillary tubes (3.5-inch glass capillaries; Drummond Scientific Co.) were pulled on a vertical puller (P-87 Flaming/Brown micropipette puller, Sutter Instrument Co.), graduated, and placed on a microinjector (Nanoject II Auto-Nanoliter Injector, Drummond Scientific Co.). 50 nl of nuclease-free water alone (control oocytes) or 50 nl of 0.6 μg μl^−1 RNA were injected under stereomicroscopic control. Injected oocytes were incubated for 46–72 h at 18 °C with twice-daily buffer changes before usage in experiments.
Drug uptake assays were performed as described previously[21],[22],[24],[34]. […] The direction of radio-labeled drug transport is here from the mostly acidic extracellular solution (pH 4.5 or 6.0, as indicated) into the oocyte cytosol (pH ∼ 7.2), which corresponds to the efflux of drug from the acidic digestive vacuole (pH 5.2) into the parasite cytoplasm (pH 7.2). The topology of PfCRT in the oolemma is such that both the N- and C-terminus face the extracellular milieu[3],[22]. In the parasite, the N- and C-terminus face the lumen of the digestive vacuole. CQ uptake kinetics were performed by incubating oocytes in ND96 buffer adjusted to a pH of 4.5, 5.0, 5.5, or 6.0 and supplemented with 50 nM [^3H]CQ and one of 7 different CQ concentrations (10 µM, 50 µM, 100 µM, 200 µM, 300 µM, 400 µM, 500 µM CQ). The reaction was stopped at the 60 min time point, which is in the linear uptake range[22],[34] (Supplementary Fig. 17). For determination of the amount of drug uptake for each oocyte, the reaction medium was removed and the oocytes were washed three times with 2 ml of ice-cold ND96 buffer. Each oocyte was individually transferred to a scintillation vial containing 5% sodium dodecyl sulfate (200 μl) for lysis. The radioactivity of each sample was measured using a liquid scintillation analyzer Tri-Carb 4910 TR (PerkinElmer). Oocytes that were injected with water instead of RNA were analyzed in parallel, representing the uptake of a drug by diffusion and/or endogenous permeation pathways. The resulting value represents the “background“ level of drug accumulation in oocytes (in-depth discussion in[22]). […]

PfCRT variant E207H = assay: CQ uptake assay, oocytes expressing E207H; conditions: for Km: read-out: KM ± SEM
Experimental: as §1, §2
Drug uptake assays were performed as described previously[21],[22],[24],[34]. […] The direction of radio-labeled drug transport is here from the mostly acidic extracellular solution (pH 4.5 or 6.0, as indicated) into the oocyte cytosol (pH ∼ 7.2), which corresponds to the efflux of drug from the acidic digestive vacuole (pH 5.2) into the parasite cytoplasm (pH 7.2). The topology of PfCRT in the oolemma is such that both the N- and C-terminus face the extracellular milieu[3],[22]. In the parasite, the N- and C-terminus face the lumen of the digestive vacuole. […] For determination of the amount of drug uptake for each oocyte, the reaction medium was removed and the oocytes were washed three times with 2 ml of ice-cold ND96 buffer. Each oocyte was individually transferred to a scintillation vial containing 5% sodium dodecyl sulfate (200 μl) for lysis. […] Oocytes that were injected with water instead of RNA were analyzed in parallel, representing the uptake of a drug by diffusion and/or endogenous permeation pathways. The resulting value represents the “background“ level of drug accumulation in oocytes (in-depth discussion in[22]). The specific PfCRT-mediated uptake was determined by subtracting the corresponding background value measured in water-injected oocytes from that of PfCRT-expressing oocytes. In all cases, at least three separate experiments were performed on oocytes from different frogs (biological replicate), and for each condition in an experiment, measurements were made from 10 oocytes per treatment. For pH 5.5, 6.0, and 6.5, ND96 was buffered with 5 mM MES/Tris base.

PfCRT variant F203A = assay: CQ uptake assay, oocytes expressing F203A
Experimental: as §1, §2
Drug uptake assays were performed as described previously[21],[22],[24],[34]. […] The direction of radio-labeled drug transport is here from the mostly acidic extracellular solution (pH 4.5 or 6.0, as indicated) into the oocyte cytosol (pH ∼ 7.2), which corresponds to the efflux of drug from the acidic digestive vacuole (pH 5.2) into the parasite cytoplasm (pH 7.2). The topology of PfCRT in the oolemma is such that both the N- and C-terminus face the extracellular milieu[3],[22]. In the parasite, the N- and C-terminus face the lumen of the digestive vacuole. CQ uptake kinetics were performed by incubating oocytes in ND96 buffer adjusted to a pH of 4.5, 5.0, 5.5, or 6.0 and supplemented with 50 nM [^3H]CQ and one of 7 different CQ concentrations (10 µM, 50 µM, 100 µM, 200 µM, 300 µM, 400 µM, 500 µM CQ). The reaction was stopped at the 60 min time point, which is in the linear uptake range[22],[34] (Supplementary Fig. 17). […] The radioactivity of each sample was measured using a liquid scintillation analyzer Tri-Carb 4910 TR (PerkinElmer). Oocytes that were injected with water instead of RNA were analyzed in parallel, representing the uptake of a drug by diffusion and/or endogenous permeation pathways. […]

[1] = E207Y, 50 µM CQ, 1 h, mean ± SEM
[2] = pH 4.5, individual replicates, Fig 6b
[3] = pH 6.0, individual replicates, Fig 6b
[4] = ratio of activity pH 4.5 / pH 6.0
[5] = E207H, 50 µM CQ, 1 h, mean ± SEM
[6] = F203A, 50 µM CQ, 1 h, mean ± SEM

`CCN(CC)CCCC(C)Nc1ccnc2cc(Cl)ccc12` (centres unmarked) [CQ, chloroquine] was tested, and the “Activity at pH 4.5” value (PfCRT variant E207Y; [1]) was 1.70 ± 0.21 pmol h-1 oocyte-1, the “Activity at pH 6.0” value (PfCRT variant E207Y; [1]) was 1.84 ± 0.21 pmol h-1 oocyte-1 and the R-value (PfCRT variant E207Y; E207Y, CQ transport at pH 4.5 / pH 6.0) was 0.92 ± 0.06. For the same compound, the “E207Y transport activity pH 4.5” value (PfCRT variant E207Y; [2]) was 2.50 pmol oocyte-1 h-1 and 1.56 pmol oocyte-1 h-1 and 1.84 pmol oocyte-1 h-1 and 1.50 pmol oocyte-1 h-1 and 1.10 pmol oocyte-1 h-1, the “E207Y transport activity pH 6.0” value (PfCRT variant E207Y; [3]) was 2.64 pmol oocyte-1 h-1 and 1.70 pmol oocyte-1 h-1 and 1.99 pmol oocyte-1 h-1 and 1.61 pmol oocyte-1 h-1 and 1.24 pmol oocyte-1 h-1 and the “E207Y R-value” (PfCRT variant E207Y; [4]) was 0.95 and 0.92 and 0.93 and 0.89. The E207H transport activity (PfCRT variant E207H; 10 μM CQ, pH 4.5) was 0.41 pmol oocyte-1 h-1 and 0.39 pmol oocyte-1 h-1 and 0.48 pmol oocyte-1 h-1, the E207H transport activity (PfCRT variant E207H; 10 μM CQ, pH 6.0) was 0.74 pmol oocyte-1 h-1 and 0.57 pmol oocyte-1 h-1 and 1.12 pmol oocyte-1 h-1 and 0.76 pmol oocyte-1 h-1 and the E207H transport activity (PfCRT variant E207H; 50 μM CQ, pH 4.5) was 2.07 pmol oocyte-1 h-1 and 1.95 pmol oocyte-1 h-1 and 1.52 pmol oocyte-1 h-1. The E207H transport activity (PfCRT variant E207H; 50 μM CQ, pH 6.0) was 4.71 pmol oocyte-1 h-1 and 5.16 pmol oocyte-1 h-1 and 4.70 pmol oocyte-1 h-1 and 3.98 pmol oocyte-1 h-1, the E207H transport activity (PfCRT variant E207H; 100 μM CQ, pH 4.5) was 4.26 pmol oocyte-1 h-1 and 4.32 pmol oocyte-1 h-1 and 4.33 pmol oocyte-1 h-1 and 5.17 pmol oocyte-1 h-1 and the E207H transport activity (PfCRT variant E207H; 100 μM CQ, pH 6.0) was 8.51 pmol oocyte-1 h-1 and 8.56 pmol oocyte-1 h-1 and 9.98 pmol oocyte-1 h-1 and 9.68 pmol oocyte-1 h-1. The E207H transport activity (PfCRT variant E207H; 200 μM CQ, pH 4.5) was 6.09 pmol oocyte-1 h-1 and 7.31 pmol oocyte-1 h-1 and 7.21 pmol oocyte-1 h-1, the E207H transport activity (PfCRT variant E207H; 200 μM CQ, pH 6.0) was 12.59 pmol oocyte-1 h-1 and 12.95 pmol oocyte-1 h-1 and 14.47 pmol oocyte-1 h-1 and 12.58 pmol oocyte-1 h-1 and the E207H transport activity (PfCRT variant E207H; 300 μM CQ, pH 4.5) was 7.95 pmol oocyte-1 h-1 and 7.89 pmol oocyte-1 h-1 and 7.92 pmol oocyte-1 h-1 and 8.79 pmol oocyte-1 h-1. The E207H transport activity (PfCRT variant E207H; 300 μM CQ, pH 6.0) was 15.93 pmol oocyte-1 h-1 and 18.38 pmol oocyte-1 h-1 and 15.91 pmol oocyte-1 h-1 and 15.89 pmol oocyte-1 h-1, the E207H transport activity (PfCRT variant E207H; 400 μM CQ, pH 4.5) was 8.22 pmol oocyte-1 h-1 and 9.32 pmol oocyte-1 h-1 and 10.99 pmol oocyte-1 h-1 and 9.19 pmol oocyte-1 h-1 and the E207H transport activity (PfCRT variant E207H; 400 μM CQ, pH 6.0) was 18.75 pmol oocyte-1 h-1 and 17.55 pmol oocyte-1 h-1 and 18.62 pmol oocyte-1 h-1. For the same compound, the E207H transport activity (PfCRT variant E207H; 500 μM CQ, pH 4.5) was 8.40 pmol oocyte-1 h-1 and 9.28 pmol oocyte-1 h-1 and 9.33 pmol oocyte-1 h-1 and 9.38 pmol oocyte-1 h-1, the E207H transport activity (PfCRT variant E207H; 500 μM CQ, pH 6.0) was 19.42 pmol oocyte-1 h-1 and 18.73 pmol oocyte-1 h-1 and 21.15 pmol oocyte-1 h-1 and 18.43 pmol oocyte-1 h-1 and the “E207H transport activity pH 4.5” value (PfCRT variant E207H; CQ uptake, oocytes expressing E207H, pH 4.5, individual replicates (Fig 6c)) was 2.07 pmol oocyte-1 h-1 and 1.95 pmol oocyte-1 h-1 and 1.52 pmol oocyte-1 h-1. For the same compound, the “E207H transport activity pH 5.0” value (PfCRT variant E207H; CQ uptake, oocytes expressing E207H, pH 5.0, individual replicates (Fig 6c)) was 2.16 pmol oocyte-1 h-1 and 3.19 pmol oocyte-1 h-1 and 2.08 pmol oocyte-1 h-1 and 1.56 pmol oocyte-1 h-1, the “E207H transport activity pH 5.5” value (PfCRT variant E207H; CQ uptake, oocytes expressing E207H, pH 5.5, individual replicates (Fig 6c)) was 2.52 pmol oocyte-1 h-1 and 2.31 pmol oocyte-1 h-1 and 4.16 pmol oocyte-1 h-1 and 3.55 pmol oocyte-1 h-1 and the “E207H transport activity pH 6.0” value (PfCRT variant E207H; CQ uptake, oocytes expressing E207H, pH 6.0, individual replicates (Fig 6c)) was 4.71 pmol oocyte-1 h-1 and 5.16 pmol oocyte-1 h-1 and 4.70 pmol oocyte-1 h-1 and 3.98 pmol oocyte-1 h-1. The “E207H transport activity pH 6.5” value (PfCRT variant E207H; CQ uptake, oocytes expressing E207H, pH 6.5, individual replicates (Fig 6c)) was 3.76 pmol oocyte-1 h-1 and 4.49 pmol oocyte-1 h-1 and 4.51 pmol oocyte-1 h-1 and 2.60 pmol oocyte-1 h-1, the “E207H transport activity pH 7.0” value (PfCRT variant E207H; CQ uptake, oocytes expressing E207H, pH 7.0, individual replicates (Fig 6c)) was 2.49 pmol oocyte-1 h-1 and 3.47 pmol oocyte-1 h-1 and 3.41 pmol oocyte-1 h-1 and 2.67 pmol oocyte-1 h-1 and the “Vmax ± SEM” value (PfCRT variant E207H; E207H, pH 4.5) was 13 ± 1 pmol h^−1 oocyte ^−1. The Km (PfCRT variant E207H; E207H, pH 4.5) was 230 ± 35 µM, the “Vmax ± SEM” value (PfCRT variant E207H; E207H, pH 6.0) was 29 ± 1 pmol h^−1 oocyte ^−1 and the Km (PfCRT variant E207H; E207H, pH 6.0) was 230 ± 20 µM. For the same compound, the “Activity at pH 4.5” value (PfCRT variant E207H; [5]) was 1.99 ± 0.16 pmol h-1 oocyte-1, the “Activity at pH 6.0” value (PfCRT variant E207H; [5]) was 4.64 ± 0.21 pmol h-1 oocyte-1 and the R-value (PfCRT variant E207H; E207H, CQ transport at pH 4.5 / pH 6.0) was 0.43 ± 0.03. The “E207H transport activity pH 4.5” value (PfCRT variant E207H; [2]) was 2.07 pmol oocyte-1 h-1 and 1.95 pmol oocyte-1 h-1 and 1.52 pmol oocyte-1 h-1, the “E207H transport activity pH 6.0” value (PfCRT variant E207H; [3]) was 4.71 pmol oocyte-1 h-1 and 5.16 pmol oocyte-1 h-1 and 4.70 pmol oocyte-1 h-1 and 3.98 pmol oocyte-1 h-1 and the “E207H R-value” (PfCRT variant E207H; [4]) was 0.51 and 0.40 and 0.41 and 0.38. The “Activity at pH 4.5” value (PfCRT variant F203A; [6]) was 0.93 ± 0.19 pmol h-1 oocyte-1, the “Activity at pH 6.0” value (PfCRT variant F203A; [6]) was 2.55 ± 0.14 pmol h-1 oocyte-1 and the R-value (PfCRT variant F203A; F203A, CQ transport at pH 4.5 / pH 6.0) was 0.36 ± 0.07. The “F203A transport activity pH 4.5” value (PfCRT variant F203A; pH 4.5, single replicates, Fig 1d left) was 0.48 pmol oocyte-1 h-1 and 1.22 pmol oocyte-1 h-1 and 1.1 pmol oocyte-1 h-1 and the “F203A transport activity pH 6.0” value (PfCRT variant F203A; pH 6.0, single replicates, Fig 1d left) was 2.29 pmol oocyte-1 h-1 and 2.47 pmol oocyte-1 h-1 and 2.88 pmol oocyte-1 h-1.

Reference: publication PMC10349806 (Nature Communications, 2023)
